Results as given in US20100266504A1, “CONDENSED PYRIDINE DERIVATIVE AND USE THEREOF” (priority 2007, published 2010).
Counter-ions that a name gives are not always drawn. Like-named read-outs stand apart in the source and are kept apart here.

Columns and labels:
[1] = biological target: serotonin 5-HT2C receptor (isoform type VSV, stably expressing CHO cell) (Homo sapiens, UniProt P28335, I156V/I160V/N158S); experiment: cell-based; details: for Emax: CHO, read-out: ratio relative to maximum response by 5-HT (1 μM); for ratio relative to maximum response by 5-HT (1 μM): hydrochloride
Chain of serotonin 5-HT2C receptor (isoform type VSV, stably expressing CHO cell) (P28335 33-458 I156V/N158S/I160V limits assumed): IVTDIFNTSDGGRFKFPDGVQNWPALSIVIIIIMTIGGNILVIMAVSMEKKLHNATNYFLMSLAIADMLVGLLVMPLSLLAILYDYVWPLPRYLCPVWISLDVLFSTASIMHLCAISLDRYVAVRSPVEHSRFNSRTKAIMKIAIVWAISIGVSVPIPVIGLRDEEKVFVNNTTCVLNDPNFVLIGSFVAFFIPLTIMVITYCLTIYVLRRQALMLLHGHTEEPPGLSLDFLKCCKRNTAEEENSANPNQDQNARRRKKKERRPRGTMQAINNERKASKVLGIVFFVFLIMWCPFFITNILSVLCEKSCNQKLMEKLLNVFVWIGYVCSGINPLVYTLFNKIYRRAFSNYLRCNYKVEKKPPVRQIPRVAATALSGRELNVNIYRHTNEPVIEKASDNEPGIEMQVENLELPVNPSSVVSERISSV

[2] = test system: spinal cord-transected female rats under urethane anesthesia; experiment: leak point pressure by high speed infusion method, serotonin 5-HT2C receptor agonists (Experimental Example 3); details: for change of leak point pressure (cmH2O): i.v., mean ± SEM; for effect on leak point pressure (in words): intravenous administration
Procedure: SD female rats (body weight 180-350 g) were anesthetized with urethane (Wako Pure Chemical Industries, Ltd.), and the spinal cord was cut at T8-9 level to eliminate the micturition reflex. During the operation, halothane (Takeda Pharmaceutical Company Limited) anesthesia was added as necessary. The rats were fixed at a dorsal position, and two catheters (PE-100; Clay Adams) were indwelled in the bladder. One of the catheters was filled with saline stained with Evans Blue dye (Merck), and connected to a 50 ml syringe (TERUMO CORPORATION) fixed on an infusion pump (KD Scientific) via a three-way cock. The other catheter was connected to a pressure transducer (DX-100; NIHON KOHDEN CORPORATION), and signals of the transducer were transmitted to computer via an amplifier (blood pressure amplification unit AP-641G; NIHON KOHDEN CORPORATION) and a data analyzer (BIOPAC; MP100), and recorded on a hard disk. The data was analyzed on the computer using a software (BIOPAC; AcqKnowledge). Saline was injected into the bladder using the infusion pump at a rate of 360 ml/hr, infusion was stopped on the moment fluid leakage from the urethral meatus was observed, and the solution in the bladder was discharged by opening the three-way cock. The maximum intravesical pressure during infusion was taken as a leak point pressure, which was measured repeatedly until the value was stabilized, and the average value of the last three measures was taken as the data. […] All the drugs were dissolved in DMA/PEG400 (1:1) and intravenously administered at 0.5 ml/kg.

[3] = test system: spinal cord transected female rats whose hypogastric nerve and pudendal nerves were bilaterally cut; experiment: urethral closure response induced by increased intravesical pressure (Experimental Example 5); details: for urethral closure response (cmH2O) after drug administration: i.v., 10 min after administration; for urethral closure response (cmH2O) after drug administration / urethral closure response (cmH2O) before drug administration: mean ± SEM, n=5; for urethral closure response (cmH2O) before drug administration: i.v. group; for effect on urethral closure response induced by increased intravesical pressure (in words): intravenous administration
Procedure: Female SD rats (body weight 200-310 g) were anesthetized with urethane (Wako Pure Chemical Industries, Ltd.), and the spinal cord was transected at T8-9 level to eliminate the micturition reflex. During the operation, halothane (Takeda Pharmaceutical Company Limited) anesthesia was added when necessary. After abdominal section, bladder neck was ligated with a suture thread, and then the hypogastric nerve and pudendal nerve were bilaterally transected. A catheter (PE-90, Clay Adams) was placed in the bladder, and the other end of the bladder catheter was connected to a pressure transducer and a water reservoir (60 ml syringe) of saline via a three-way cock. A microtip transducer catheter (SPR-524, Millar Instruments Inc.) was inserted toward the bladder from the urethral orifice, and adjusted using a scale on the catheter surface so that the transducer part is positioned in the urethra at 10.0-15.0 mm from the urethral orifice.
The changes in the topical pressure within the urinary tract (hereinafter conveniently indicated as urethral pressure) as measured by the microtip transducer was transmitted to a computer via an amplifier (blood pressure amplification unit AP-641G; NIHON KOHDEN) and a data analyzer (MP-100; biopack; sampled at 500 Hz), and recorded on a hard disc. […] The reaction of the urinary tract induced by an increased intravesical pressure was measured 3 times, and the average of the last 2 measures was taken as the value before drug administration. The evaluation item was reflex urethral closure response, and the recorded values were subjected to smoothing process at 500 points to calculate an average urethral pressure per 1 sec, after which the value immediately before increase in the intravesical pressure was subtracted from the maximum value on increase in the intravesical pressure and taken as the urethral closure response. […] The drugs were all dissolved in N,N-dimethylformamide/polyethylene glycol 400 (1:1) and administered intravenously at a volume of 0.5 ml/kg.

[4] = test system: spinal cord-transected female rats under urethane anesthesia; details: before vs after administration
Procedure: SD female rats (body weight 180-350 g) were anesthetized with urethane (Wako Pure Chemical Industries, Ltd.), and the spinal cord was cut at T8-9 level to eliminate the micturition reflex. During the operation, halothane (Takeda Pharmaceutical Company Limited) anesthesia was added as necessary. The rats were fixed at a dorsal position, and two catheters (PE-100; Clay Adams) were indwelled in the bladder. One of the catheters was filled with saline stained with Evans Blue dye (Merck), and connected to a 50 ml syringe (TERUMO CORPORATION) fixed on an infusion pump (KD Scientific) via a three-way cock. The other catheter was connected to a pressure transducer (DX-100; NIHON KOHDEN CORPORATION), and signals of the transducer were transmitted to computer via an amplifier (blood pressure amplification unit AP-641G; NIHON KOHDEN CORPORATION) and a data analyzer (BIOPAC; MP100), and recorded on a hard disk. The data was analyzed on the computer using a software (BIOPAC; AcqKnowledge). Saline was injected into the bladder using the infusion pump at a rate of 360 ml/hr, infusion was stopped on the moment fluid leakage from the urethral meatus was observed, and the solution in the bladder was discharged by opening the three-way cock. The maximum intravesical pressure during infusion was taken as a leak point pressure.

SMILES: CC1CNCc2ccc(N3CCOCC3)nc21 (single isomer, unassigned) [Example 73, (8R*)-8-Methyl-2-morpholin-4-yl-5,6,7,8-tetrahydro-1,6-naphthyridine hydrochloride]
- Emax [1]: 101%

SMILES: CC1CNCc2ccc(N3CCOCC3)nc21 (single isomer, unassigned) [Example 74, (8S*)-8-Methyl-2-morpholin-4-yl-5,6,7,8-tetrahydro-1,6-naphthyridine hydrochloride]
- ratio relative to maximum response by 5-HT (1 μM) [1]: 103

SMILES: CC1CNCc2ccc(N(C)C(C)C)nc21 (single isomer, unassigned) [Example 79, (8R*)-N-Isopropyl-N,8-dimethyl-5,6,7,8-tetrahydro-1,6-naphthyridin-2-amine hydrochloride]
- Emax [1]: 106%

SMILES: CC1CNCc2ccc(N(C)C(C)C)nc21 (single isomer, unassigned) [Example 80, (8S*)-N-Isopropyl-N,8-dimethyl-5,6,7,8-tetrahydro-1,6-naphthyridin-2-amine hydrochloride]
- ratio relative to maximum response by 5-HT (1 μM) [1]: 102

SMILES: CC1CNCc2ccc(N3CCOC[C@H]3C)nc21 (stereo in doubt) [Example 75, (8R*)-8-Methyl-2-[(3R)-3-methylmorpholin-4-yl]-5,6,7,8-tetrahydro-1,6-naphthyridine hydrochloride]
- Emax [1]: 103%

SMILES: CC1CNCc2ccc(N3CCOC[C@H]3C)nc21 (stereo in doubt) [Example 76, (8S*)-8-Methyl-2-[(3R)-3-methylmorpholin-4-yl]-5,6,7,8-tetrahydro-1,6-naphthyridine hydrochloride]
- ratio relative to maximum response by 5-HT (1 μM) [1]: 105

SMILES: C[C@H]1CNCCc2ccc(Cl)cc21 [APD-356]
- change of leak point pressure (cmH2O) ([2]; 0.1 mg/kg): 5.2 ± 2.6 cmH2O
- change of leak point pressure (cmH2O) ([2]; 1 mg/kg): 19.2 ± 3.1 cmH2O
- change of leak point pressure (cmH2O) ([2]; 3 mg/kg): 28.9 ± 3.3 cmH2O
- effect on leak point pressure (in words) [2]: increased the leak point pressure in a dose-dependent manner
- urethral closure response (cmH2O) after drug administration ([3]; 1 mg/kg): 8.6 ± 2.7 cmH2O
- urethral closure response (cmH2O) before drug administration ([3]; baseline of the 1 mg/kg): 5.3 ± 1.7 cmH2O
- effect on urethral closure response induced by increased intravesical pressure (in words) [3]: enhanced the urethral closure response

SMILES: CC1CCNCc2ccc(N3CCOCC3)nc21 (centres unmarked) [Example 2, 9-Methyl-2-morpholin-4-yl-6,7,8,9-tetrahydro-5H-pyrido[3,2-c]azepine hydrochloride]
- Emax [1]: 92.8%

SMILES: CC1CNCc2ccc(-c3ccc(F)cc3)nc21 (centres unmarked) [Example 4, 2-(4-Fluorophenyl)-8-methyl-5,6,7,8-tetrahydro-1,6-naphthyridine hydrochloride]
- Emax [1]: 101%

SMILES: CC1CNCc2ccc(N3CCOCC3)nc21 (centres unmarked) [Example 5, 8-Methyl-2-morpholin-4-yl-5,6,7,8-tetrahydro-1,6-naphthyridine dihydrochloride]
- Emax [1]: 101%

SMILES: c1cc2c(nc1N1CCOCC1)CCNC2 [Example 6, 2-Morpholin-4-yl-5,6,7,8-tetrahydro-1,6-naphthyridine]
- Emax [1]: 100%

SMILES: C[C@@H]1COCCN1c1ccc2c(n1)CCNC2 [Example 7, 2-[(3R)-3-Methylmorpholin-4-yl]-5,6,7,8-tetrahydro-1,6-naphthyridine hydrochloride]
- Emax [1]: 95.6%

SMILES: C[C@H]1COCCN1c1ccc2c(n1)CCNC2 [Example 8, 2-[(3S)-3-Methylmorpholin-4-yl]-5,6,7,8-tetrahydro-1,6-naphthyridine hydrochloride]
- Emax [1]: 90.8%

SMILES: CCN(C)c1ccc2c(n1)CCNC2 [Example 15, N-Ethyl-N-methyl-5,6,7,8-tetrahydro-1,6-naphthyridin-2-amine hydrochloride]
- Emax [1]: 102%

SMILES: CC(C)N(C)c1ccc2c(n1)CCNC2 [Example 17, N-Isopropyl-N-methyl-5,6,7,8-tetrahydro-1,6-naphthyridin-2-amine hydrochloride]
- Emax [1]: 100%

SMILES: CC(C)c1ccc2c(n1)CCNC2 [Example 24, 2-Isopropyl-5,6,7,8-tetrahydro-1,6-naphthyridine hydrochloride]
- Emax [1]: 101%

SMILES: c1cc(-c2ccc3c(n2)CCNC3)co1 [Example 26, 2-(3-Furyl)-5,6,7,8-tetrahydro-1,6-naphthyridine dihydrochloride]
- Emax [1]: 98.2%

SMILES: Fc1ccc(-c2ccc3c(n2)CCNC3)cc1 [Example 27, 2-(4-Fluorophenyl)-5,6,7,8-tetrahydro-1,6-naphthyridine dihydrochloride]
- Emax [1]: 91.7%

SMILES: CSc1ccc(-c2ccc3c(n2)CCNC3)cc1 [Example 28, 2-[4-(Methylthio)phenyl]-5,6,7,8-tetrahydro-1,6-naphthyridine dihydrochloride]
- Emax [1]: 102%

SMILES: FC(F)(F)c1ccc(-c2ccc3c(n2)CCNC3)cc1 [Example 29, 2-[4-(Trifluoromethyl)phenyl]-5,6,7,8-tetrahydro-1,6-naphthyridine dihydrochloride]
- Emax [1]: 97%

SMILES: CC(C)Oc1ccc2c(n1)CCNC2 [Example 30, 2-Isopropoxy-5,6,7,8-tetrahydro-1,6-naphthyridine hydrochloride]
- Emax [1]: 97.8%

SMILES: CC(Oc1ccc2c(n1)CCNC2)C1CC1 (centres unmarked) [Example 31, 2-(1-Cyclopropylethoxy)-5,6,7,8-tetrahydro-1,6-naphthyridine hydrochloride]
- Emax [1]: 88.4%

SMILES: c1cc2c(nc1C1CC1)CCNC2 [Example 43, 2-Cyclopropyl-5,6,7,8-tetrahydro-1,6-naphthyridine hydrochloride]
- Emax [1]: 97%

SMILES: CC1CNCc2ccc(N3CCOC[C@H]3C)nc21 (stereo partly drawn) [Example 48, 8-Methyl-2-[(3R)-3-methylmorpholin-4-yl]-5,6,7,8-tetrahydro-1,6-naphthyridine hydrochloride]
- Emax [1]: 95.5%

SMILES: CC1CNCc2ccc(N(C)C(C)C)nc21 (centres unmarked) [Example 53, N-Isopropyl-N,8-dimethyl-5,6,7,8-tetrahydro-1,6-naphthyridin-2-amine hydrochloride]
- Emax [1]: 91%

SMILES: O=C1Nc2cc(Cl)c(Cl)cc2N2CCNCC12 (centres unmarked) [WAY-161503]
- change of leak point pressure (cmH2O) ([2]; 0.03 mg/kg): 7.4 ± 3.8 cmH2O
- change of leak point pressure (cmH2O) ([2]; 0.3 mg/kg): 12.8 ± 1.0 cmH2O
- effect on leak point pressure (in words) [2]: increased the leak point pressure in a dose-dependent manner

SMILES: c1cc2c3c(c1)[C@H]1CCC[C@H]1N3CCNC2 [WAY-163909]
- change of leak point pressure (cmH2O) ([2]; 0.1 mg/kg): 4.4 ± 1.6 cmH2O
- change of leak point pressure (cmH2O) ([2]; 1 mg/kg): 12.9 ± 4.2 cmH2O
- change of leak point pressure (cmH2O) ([2]; 3 mg/kg): 30.1 ± 2.6 cmH2O
- effect on leak point pressure (in words) [2]: increased the leak point pressure in a dose-dependent manner
- urethral closure response (cmH2O) after drug administration ([3]; 3 mg/kg): 10.2 ± 1.6 cmH2O
- urethral closure response (cmH2O) before drug administration ([3]; baseline of the 3 mg/kg): 4.4 ± 0.8 cmH2O
- effect on urethral closure response induced by increased intravesical pressure (in words) [3]: enhanced the urethral closure response

SMILES: c1cc2c(nc1N1CCOCC1)OCCNC2 [compound A, 8-morpholin-4-yl-2,3,4,5-tetrahydropyrido[3,2-f][1,4]oxazepine]
- change of leak point pressure (cmH2O) ([2]; 0.1 mg/kg): 8.4 ± 5.0 cmH2O
- change of leak point pressure (cmH2O) ([2]; 1 mg/kg): 10.3 ± 2.4 cmH2O
- change of leak point pressure (cmH2O) ([2]; 3 mg/kg): 25.7 ± 8.7 cmH2O
- effect on leak point pressure (in words) [2]: increased the leak point pressure in a dose-dependent manner
- urethral closure response (cmH2O) after drug administration ([3]; 1 mg/kg): 7.5 ± 1.6 cmH2O
- urethral closure response (cmH2O) before drug administration ([3]; baseline of the 1 mg/kg): 4.6 ± 0.8 cmH2O
- effect on urethral closure response induced by increased intravesical pressure (in words) [3]: enhanced the urethral closure response

SMILES: CNCC[C@H](Oc1cccc2ccccc12)c1cccs1 [duloxetine]
- change of leak point pressure (cmH2O) ([4]; 1 mg/kg, i.v., mean ± SEM, n=5): 11.4 ± 2.4 cmH2O
- effect on leak point pressure (in words) ([4]; intravenous administration): significantly increased the leak point pressure
